What was measured:
TNFα mRNA expression = experiment: Endothelial inflammatory activation after endotoxin, TNFα mRNA (Example 5); format: cell-based, Human; settings: HUVEC; 10 μM for 30 min
Method: (§1) Human Umbilical Cord Endothelial Cells (HUVEC, Lonza CC-2519) were maintained on 1% gelatin-coated culture flasks in RPMI1640 medium containing 20% fetal bovine serum, 2 mM Glutamine (Sigma-Aldrich), 1% Penicillin-Streptomycin solution (Sigma-Aldrich) and 50 μg/ml Bovine Pituitary Extract (Invitrogen). HUVEC were passaged by trypsinization when the cultures reach a confluency of 70%. For all experiments, HUVEC were seeded at 0.6·10^5 cells/cm^2 and allowed to adhere for 24 hours.
(§2) HUVEC cells were lysed in triZOL reagens (Invitrogen) and total RNA isolated according to manufacturers' instruction. 1 μg total RNA per sample was reverse transcribed using the FirstAid Reverse Transcription Kit (ThermoFisher). Copy-DNA equivalents of 5 ng total RNA were amplified on a ViiA7 Real-time PCR system (ThermoFisher, Waltham, Mass.) using iTaq Universal SYBR Green Supermix (Bio-Rad, Hercules, Calif.) and primers specific for tumor necrosis factor alpha (TNFα; sense 5′-[…]-3′, antisense 5′-[…]-3′), interleukin 1 beta (IL-1β; sense 5′-[…]-3′, antisense 5′-[…]-3′), interleukin-6 (IL-6; sense 5′-[…]-3′, antisense 5′-[…]-3′) and beta actin (ACTB; sense 5′-[…]-3′, antisense 5′-[…]-3′) as loading control. Amplification was performed for 40 cycles of 95° C. for 30 s, 60° C. for 1 min. Relative mRNA expression was calculated according to the δδCt-method.

[1] = test system: NO production in RAW264.7 macrophages; experiment: Macrophage NO production (nitrate in conditioned medium), basal and after LPS; format: cell-based, Mouse
Method: Mouse macrophage RAW264.7 cells (ATCC #TIB-71) were maintained in DMEM medium containing 10% fetal bovine serum, and 1% Penicillin-Streptomycin solution (Sigma-Aldrich). […] For all experiments, RAW264.7 cells were seeded at 0.5·10^5 cells/cm^2 and allowed to adhere for 24 hours. Cellular production of NO was approximated by measuring nitrate concentrations in culture media using the Measure-IT™ High-Sensitivity Nitrite Assay Kit (#M36051, ThermoFisher) according to manufacturer's instructions. […] Therefore, nitrate concentrations in conditioned media are a good approximate to assess cellular NO production. 50 μl conditioned medium derived from a single 96-wells plate well was used per assay and normalized against protein concentration. All experiments were performed in quadruplicate. LPS induces macrophage NO production by activating iNOS. RAW264.7 macrophages were pre-treated with vehicle (DMSO), BN-80933, SUL-138, or SUL-150 or (all 10 μM) prior to endotoxin (LPS 100 ng/ml) exposure for 24 hours. The nitrate levels in the conditioned medium from LPS exposed RAW264.7 macrophages averaged at 83 pmol/mg protein (˜16-fold increase versus non-exposed RAW264.7 cells, p=0.001).

IL-6 mRNA expression = experiment: Endothelial inflammatory activation after endotoxin, IL-6 mRNA (Example 5); format: cell-based, Human; settings: HUVEC; 10 μM for 30 min
Method: as §1, §2

[2] = test system: expression of IL-6, TNF-α, IL-1β and ICAM in the kidney; experiment: CLP sepsis model, kidney RNA expression by qRT-PCR; format: in vivo; settings: CLP mice; SUL-138 5 mg/kg s.c.; 24 hours
Method: To induce sepsis, the standard cecal ligation and puncture (CLP) model was used. Animals were anesthetized by subcutaneous injection of xylazine/ketamine (100/10 mg/kg), followed by administration of buprenorphine (0.1 mg/kg) as analgesic. After confirmation of anesthesia by lack of response to paw pinch and eye reflex, the abdomen was shaved, cleaned, and de-germed using a povidone-iodine solution before a 1-cm midline incision was made. The cecum was ligated with a 6-0 suture at half the distance between distal pole and the base of the cecum and punctured once with a 21-Gauge needle (‘through-and-through’ from mesenteric toward anti-mesenteric direction) which is an accepted model for ‘mid-grade’ sepsis. A small amount of stool (2-3 mm) was then extruded to ensure wound patency. The cecum was repositioned, thereby taking care not to spill fecal material on the wound edges, followed by closure of the abdomen by running sutures to the abdominal musculature and short interrupted sutures to the skin. Next, 1 ml of saline (warmed, 0.9% NaCl s.c.) was administered to compensate for the expected relative volume depletion due to the onset of sepsis.
Mice in the SUL-138 treated groups were injection with SUL-138 (dissolved in saline, 5 mg/kg, s.c.) at 2 hours before and 8 hours after surgery, while mice in the other groups were injected with an equal volume of saline at these time-points.
In order to assess the expression of proinflammatory cytokines and adhesion molecules in the kidney, including IL-6, TNF-α, IL-1β and ICAM, RNA was isolated from approximately 30 mg kidney tissue using Nucleospin RNA (Machery-Nagel, Duren, Germany), quantified using nanodrop spectrophotometer ND-1000 and converted into copy DNA (cDNA), using 0.5 μg RNA in each sample. For RNA isolation from cells, the same kit was used with slight adaptations: TRIzol and chloroform as lysis buffer, instead of the lysis buffer from the kit. Olignucleotide primers were designed using NCBI Primer Blast and Clone Manager (see appendix) and validated by assessing the efficiency, melting temperature and curve using qRT-PCR and size on gel electrophoresis of the naive and enzymatically digested products. qRT-PCR amplification was performed using the following thermal profile: 95° C. for 2 min, followed by 40 cycli of 95° C. for 15 sec, 58° C. for 30 sec and 72° C. 30 sec. All reactions were carried out in triplicate and a standard curve for each primer was used.

IL-1β mRNA expression = experiment: Inhibition of LPS-induced IL-1β mRNA expression in NRK52E; format: cell-based, Rat; settings: 10 μM for 30 min, then LPS 24 hours
Method: Rat kidney epithelial cells (ATCC #CRL-1571) were maintained in DMEM medium containing 10% fetal bovine serum, and 1% Penicillin-Streptomycin solution (Sigma-Aldrich). NRK52E cells were passaged by trypsinization when the cultures reached a confluency of 70%. For all experiments, NRK52E cells were seeded at 0.6·10^5 cells/cm^2 and allowed to adhere for 24 hours.
HUVEC and NRK52E cells were pre-incubated with SUL compounds (10 μM) for 30 min and subsequently exposed to LPS for 24 hours under standard culture conditions. Cells were lysed in triZOL reagens (Invitrogen) and total RNA isolated according to manufacturers' instruction. 1 μg total RNA per sample was reverse transcribed using the FirstAid Reverse Transcription Kit (ThermoFisher). Copy-DNA equivalents of 5 ng total RNA were amplified on a ViiA7 Real-time PCR system (ThermoFisher, Waltham, Mass.) using iTaq Universal SYBR Green Supermix (Bio-Rad, Hercules, Calif.) and primers specific for tumor necrosis factor alpha, interleukin 1 beta, interleukin-6 and beta actin as loading control. Amplification was performed for 40 cycles of 95° C. for 30 s, 60° C. for 1 min. Relative mRNA expression was calculated as 2^−(Cq^gene^−Cq^reference^) and normalized to unstimulated control cells (100% inhibition) and vehicle-treated and LPS exposed cells (0% inhibition). The following primers were used: […]

Cc1c(C)c2c(c(C)c1O)CC[C@@](C)(C(=O)N1CCN(CCO)CC1)O2 [SUL-138, (S)-(6-hydroxy-2,5,7,8-tetramethylchroman-2-yl)(4-(2-hydroxyethyl)piperazin-1-yl)methanone]
LPS-induced mRNA expression of TNFα (TNFα mRNA expression): precludes the induction of mRNA expression of the pro-inflammatory cytokine TNFα
LPS-induced increase in extracellular nitrate level ([1]; 10 μM pre-treatment, LPS 100 ng/ml for 24 hours): Neither SUL-138 nor SUL-150 strongly suppressed the LPS-induced increase in nitrate production
basal production of extracellular nitrate ([1]; no LPS, 10 μM): Neither BN-80933, SUL-138, nor SUL-150 affected the basal production of extracellular nitrate
LPS-induced mRNA expression of IL-6 (IL-6 mRNA expression): precluded the LPS-induced increase in IL-1β and IL-6
ICAM expression in the kidney (RNA) [2]: lower than in the untreated CLP animals but the difference was not statistically significant
IL-1β expression in the kidney (RNA) [2]: lower than in the untreated CLP animals but the difference was not statistically significant
IL-6 expression in the kidney (RNA) [2]: fully prevented the rise in IL-6 expression
TNF-α expression in the kidney (RNA) [2]: lower than in the untreated CLP animals but the difference was not statistically significant
inhibition of LPS-induced mRNA expression of IL-1β (IL-1β mRNA expression): 65.2 ± 8.9 %

Source: patent publication US20230202997A1, “CHROMANOL, QUINONE OR HYDROQUINONE COMPOUNDS FOR TREATMENT OF SEPSIS” (Sulfateq B.V., priority 2020, published 2023)
